How the values were obtained:
[1] = Stability test (Chinese Pharmacopoeia 2010, Guideline for Stability Test of Bulk Drug), purity by HPLC; format: physicochemical
Experimental: Chromatographic column: Agilent peptide map chromatographic column (3.0×150 mm, 2.7 μm)
Mobile phase A: phosphate buffer solution (monopotassium phosphate (0.79 g) was weighted and dissolved in water, then diluted to 1000 ml, and further adjusted to pH=2.4 with phosphoric acid)
Mobile phase B: ethanol-acetonitrile (40:60)
Detection wavelength: 235 nm for detection
Column temperature: 55° C.
Solvent: mobile phase A-mobile phase B (1:3)
Preparation of a solution of a test sample: an appropriate amount of the test sample was weighted and dissolved in the solvent [mobile phase A-mobile phase B (1:3)], then diluted to a solution which comprises about 0.16 mg of sorafenib per 1 ml as the solution of the test sample.
The stability test for the sorafenib hemi-p-tosylate monohydrate crystal of the present invention was conducted according to the Chinese Pharmacopoeia (2010), Part 11, Appendix XIX C: Guideline for Stability Test of Bulk Drug and Pharmaceutical Preparation.

[2] = Hygroscopicity test (Chinese Pharmacopoeia 2010, Guideline for Hygroscopicity Test of Drug); format: physicochemical
Experimental: The hygroscopicity test for the sorafenib hemi-p-tosylate monohydrate crystal of the present invention was conducted according to the Chinese Pharmacopoeia (2010), Part II, Appendix XIX J: Guideline for Hygroscopicity Test of Drug.

- Purity ([1]; Day 0): 99.96%
- Purity ([1]; Exposure test to light (luminance: 6000 Lux), standing for 10 days): 99.97%
- Purity ([1]; Shading test (luminance: 6000 Lux), standing for 10 days): 99.96%
- Purity ([1]; Standing for 6 months at 25° C. ± 2° C. and humidity of 60% ± 5%): 99.96%
- Purity ([1]; Standing for 10 days at 25° C. and humidity of 92.5% ± 5%): 99.96%
- Purity ([1]; Standing for 10 days at 40° C.): 99.96%
- Purity ([1]; Standing for 10 days at 60° C.): 99.95%
- Stability (conclusion in words) ([1]; results of Table 4): highly stable
- Hygroscopic weight grain (%) [2]: 0.07%
Structure (SMILES): CNC(=O)c1cc(Oc2ccc(NC(=O)Nc3ccc(Cl)c(C(F)(F)F)c3)cc2)ccn1 [sorafenib hemi-p-tosylate monohydrate]

Source: patent US20180370918A1, “SORAFENIB HEMI-P-TOSYLATE MONOHYDRATE CRYSTAL AND PREPARATION PROCESS THEREOF” (CHIA TAI TIANQING PHARMACEUTICAL GROUP CO., LTD., priority 2015, published 2018)
